Assay results published in patent US6482975B1, “Bis-poly(ethylene oxide) surfactants and their use as antistats in photographic materials” (Eastman Kodak Company, priority 1998, dated 2002).

What was measured:
[1] = Ease of dissolution of surfactant in water; type: physicochemical
Experimental: (§1) A number of surfactants were tested for their ease of dissolution in water. Furthermore, the critical micelle concentrations (CMCs) of the surfactants were determined in aqueous solution containing 7% weight/weight deionised Type IV bone gelatin. The CMCs were determined from surface tension data by estimating the break point in the plot of surface tension against log concentration (see M. J. Rosen, Surfactants and Interfacial Phenomena, 2nd Edition, Wiley (1989), 110).

[2] = Critical micelle concentration from surface tension data in aqueous 7% w/w gelatin solution; type: physicochemical; conditions: aqueous solution containing 7% wt/wt deionised Type IV bone gelatin
Experimental: as §1

Substance	Solubility in Water [1]	CMC in molar terms (M) moles kg^−1 [2] [M]
CxF2x+1(CH2)y—(CH2CH2O) z—OH [Zonyl FSN]	Requires relatively long stirring	0.0003
Fluoroalkylthiosuccinic acid, Polyethylene glycol diester (II, R=C6F13CH2CH2,p=7)	Dissolves easily with gentle	6e-05
